The subject of test [1] is HEC-6 cells (endometrial cancer cell lines). Nature of the test: Cell growth suppression test on HEC-6 cells (CellTiter-Glo). It counts as cell-based. As to conditions: 72 h, read-out: Cell growth inhibition GI50, heading: Cell growth inhibition GI50, 3 days, table head prints μM, method says GI50 (nM). How it is done: The in vitro cell growth suppression test on HEC-6 cells (endometrial cancer cell lines) was performed under the conditions described below.
HEC-6 cells (Health Science Research Resources Bank, Cell Number: JCRB1118) cultured in a MEM medium containing 15% FBS (GIBCO, Cat#: 10370) were seeded on a 384-well flat bottom microplate (CORNING, Cat#: 3571) at 500 cells/well (20 μl) and cultured in an incubator containing 5% carbon dioxide at 37° C. for 1 day. The compound according to the present invention subjected to serial dilution with dimethyl sulfoxide or dimethyl sulfoxide alone was added to a MEM medium containing 15% FBS. […] Thereafter, the luminescence level derived from viable cells in each well was assayed with the use of the Multimode Plate Reader (PerkinElmer, EnVision). […] Thereafter, the luminescence level derived from viable cells in each well was assayed with the use of the Multimode Plate Reader. […] Cell growth rate (%)=(T−C0)/(C−C0)×100, provided that T is equal to or greater than C0(T≥C0) Cell growth rate (%)=(T−C0)/C0×100, provided that T is less than C0(T<C0) C0: Luminescence level in each well when the compound is added (count per second) C: Luminescence level in each well when dimethyl sulfoxide is added alone (count per second) T: Luminescence level in each well when the test compound is added (count per second) […]
On the technique in general: In ATP-based viability assays light output follows the ATP content of the culture.

Test [2] has as its system RKO cells (human colon cancer cell lines). Nature of the test: Cell growth inhibition study using RKO cells (CellTiter-Glo). It counts as cell-based. As to conditions: 72 h, 3 days. How it is done: The in vitro cell growth inhibition study using RKO cells (human colon cancer cell lines) was conducted as described below.
RKO cells (ATCC, Cat#: CRL-2577) cultured in a MEM medium (GIBCO, Cat#:10370-088) supplemented with 10% FBS, 1 mM L-glutamine (GIBCO, Cat#:25030), and 1 mM sodium pyruvate (GIBCO, Cat#:11360) were seeded in a 96-well flat bottom microplate (COSTAR, Cat#:3904) at 2×10^3 cells (150 μl) and cultured in an incubator containing 5% CO2 at 37° C. for 1 day. The compound according to the present invention subjected to serial dilution with dimethyl sulfoxide or dimethyl sulfoxide alone was added to a MEM medium containing 10% FBS, 1 mM L-glutamine, and 1 mM sodium pyruvate. The resultant medium containing the compound or dimethyl sulfoxide alone was added to the RKO cells in the culture plate by 50 μl/well at the final concentration of the compound to 10, 3, 1, 0.3, 0.1, 0.03, 0.01, 0.003, and 0 μM, respectively. Another RKO cell culture plate separately prepared was allowed to stand at room temperature for 30 minutes, then 100 μl of the medium was removed, and added 50 μl of CellTiter-Glo® 2.0 Assay (Promega, Cat#:G9242) to each well. After the plates were placed in the dark for 10 minutes, the luminescence level derived from viable cells in each well was measured by the Multimode Plate Reader (PerkinElmer, EnSpire). The cells treated with the compound or dimethyl sulfoxide alone were cultured at 37° C. in an incubator containing 5% CO2 for an additional 3 days. After incubation, the culture plate was placed at room temperature for 30 minutes, and 150 μl of the supernatant was removed from each well to adjust the amount of the remaining cell culture solution to 50 μl each. To 50 μl of the remaining cell culture solution, the equivalent amount of CellTiter-Glo® 2.0 Assay was added. After the cell culture plate was placed in the dark for 10 minutes, the luminescence level derived from viable cells in each well was assayed with the use of the Multimode Plate Reader. The cell growth rate was calculated by the formulae shown below and the concentration at which the cell growth rate became 50%; i.e., the concentration of the compound according to the present invention at which cell growth would be inhibited by 50% was determined (GI50 (nM)). Cell growth rate (%)=(T−C0)/(C−C0)×100, provided that T is equal to or greater than C0(T≥C0) Cell growth rate (%)=(T−C0)/C0×100, provided that T is less than C0(T<C0) C0: Luminescence level in each well when the compound is added (count per second) C: Luminescence level in each well when dimethyl sulfoxide is added alone (count per second) T: Luminescence level in each well when the test compound is added (count per second)
As control compounds, conventional Comparative Example A (WO 2010/056563 (Example 31)) and Comparative Example B having inhibitory activity against Akt were used.
The GI50 levels of representative compounds according to the present invention and reference compounds in RKO cells were evaluated, and the results are shown in Table 5.

For test [3], the target named is human Akt1 (Homo sapiens (Human), UniProt P31749). As to the kind of experiment: Inhibitory effects on Akt1 kinase activity (TR-FRET, biotinylated Crosstide). The class given is biochemical. The following applies: Akt1, ATP 150 μM, pre-incubation 120 minutes at 25° C.; read-out: AKT inhibitory activity IC50. The method, boiled down:
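Middle T-tagged human Akt1 from Sf9 cells, PDK1-activated, pre-incubated with compound 120 min at 25 °C (Tris pH 7.5); then 500 nM biotin-Crosstide, 10 mM MgCl2, 150 μM ATP for 60 min at 25 °C. Eu-anti-phospho-Crosstide/APC-SA TR-FRET 665/620 ratio; IC50 as 50% phosphorylation inhibition.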
(In TR-FRET formats the signal depends on donor and acceptor labels being close together.)

Test [4] addresses Rsk1 (Homo sapiens (Human), UniProt Q15418). As to the kind of experiment: Inhibitory effects on Rsk1 kinase activity (QSS Assist FP assay kit). It counts as biochemical. The following applies: Rsk1, ATP 30 μM; read-out: Rsk inhibitory activity IC50.
Test [5] addresses S6K1 (Homo sapiens (Human), UniProt P23443). Nature of the test: Inhibitory effects on S6K1 kinase activity (QSS Assist FP assay kit). The class given is biochemical. The following applies: S6K1, ATP 25 μM; read-out: S6K inhibitory activity IC50. The method, boiled down:
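S6K protein with 100 nM substrate peptide, 5 mM MgCl2, 25 μM ATP and 5% DMSO, in 20 mM HEPES pH 7.4, reacted 30 min at 25 °C. Reaction stopped with IMAP binding reagent, 120 min dark, then fluorescence polarization (ex 485/em 520 nm) read.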

SMILES strings stand for the structures. pIC50: −log10 of the molar value.

Chain of human Akt1 (P31749 whole entry): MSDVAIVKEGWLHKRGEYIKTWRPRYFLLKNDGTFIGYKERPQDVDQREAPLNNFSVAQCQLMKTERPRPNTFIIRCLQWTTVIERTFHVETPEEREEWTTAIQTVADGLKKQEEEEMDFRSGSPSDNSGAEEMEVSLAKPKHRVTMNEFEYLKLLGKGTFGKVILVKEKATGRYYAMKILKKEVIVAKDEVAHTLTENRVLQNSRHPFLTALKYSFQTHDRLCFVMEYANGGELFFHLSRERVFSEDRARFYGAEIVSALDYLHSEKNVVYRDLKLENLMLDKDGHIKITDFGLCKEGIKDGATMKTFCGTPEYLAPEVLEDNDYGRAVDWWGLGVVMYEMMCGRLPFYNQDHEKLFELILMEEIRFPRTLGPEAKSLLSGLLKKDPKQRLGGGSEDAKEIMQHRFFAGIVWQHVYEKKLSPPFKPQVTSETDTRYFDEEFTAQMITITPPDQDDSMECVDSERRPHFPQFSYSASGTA
Chain of Rsk1 (Q15418 whole entry): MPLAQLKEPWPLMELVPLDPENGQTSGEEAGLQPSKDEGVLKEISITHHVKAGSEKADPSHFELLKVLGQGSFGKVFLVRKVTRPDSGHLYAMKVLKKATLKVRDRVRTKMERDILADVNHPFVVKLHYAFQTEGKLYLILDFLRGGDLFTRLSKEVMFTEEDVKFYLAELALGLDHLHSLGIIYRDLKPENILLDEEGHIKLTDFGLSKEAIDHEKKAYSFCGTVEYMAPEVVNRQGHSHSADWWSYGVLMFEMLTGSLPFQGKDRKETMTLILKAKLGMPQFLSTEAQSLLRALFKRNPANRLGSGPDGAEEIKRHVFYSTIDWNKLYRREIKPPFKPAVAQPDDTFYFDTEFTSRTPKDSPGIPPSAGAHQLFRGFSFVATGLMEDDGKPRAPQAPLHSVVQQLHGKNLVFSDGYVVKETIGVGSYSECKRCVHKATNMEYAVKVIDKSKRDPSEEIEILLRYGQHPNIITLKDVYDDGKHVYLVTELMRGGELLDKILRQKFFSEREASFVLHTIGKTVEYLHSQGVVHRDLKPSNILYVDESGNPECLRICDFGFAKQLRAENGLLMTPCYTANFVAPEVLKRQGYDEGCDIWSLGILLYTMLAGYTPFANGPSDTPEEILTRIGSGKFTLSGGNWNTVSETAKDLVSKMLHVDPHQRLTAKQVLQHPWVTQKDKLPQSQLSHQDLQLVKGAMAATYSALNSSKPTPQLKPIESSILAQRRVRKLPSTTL
Chain of S6K1 (P23443 whole entry): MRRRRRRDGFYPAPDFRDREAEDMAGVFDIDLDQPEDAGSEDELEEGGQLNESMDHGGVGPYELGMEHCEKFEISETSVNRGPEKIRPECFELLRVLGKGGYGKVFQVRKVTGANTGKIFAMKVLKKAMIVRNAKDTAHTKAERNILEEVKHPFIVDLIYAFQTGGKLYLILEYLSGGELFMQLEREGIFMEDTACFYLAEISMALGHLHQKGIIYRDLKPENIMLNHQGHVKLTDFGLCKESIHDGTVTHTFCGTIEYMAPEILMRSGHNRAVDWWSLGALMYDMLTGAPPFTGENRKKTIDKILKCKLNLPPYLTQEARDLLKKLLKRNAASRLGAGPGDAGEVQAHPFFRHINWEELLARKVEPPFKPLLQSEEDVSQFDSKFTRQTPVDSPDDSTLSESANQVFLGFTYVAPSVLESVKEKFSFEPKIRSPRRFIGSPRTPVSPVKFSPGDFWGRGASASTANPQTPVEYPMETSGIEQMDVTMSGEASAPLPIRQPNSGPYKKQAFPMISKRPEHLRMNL

On to `CN(C)CCn1cc(-c2ccc(F)c(C(F)(F)F)c2)nc1C1CCN(c2ncnc3c2C(C)(C)C(=O)N3)CC1` [Comparative Example A, reference compound], for which the results for the GI50 in test [1] and in test [2] were 1.04 µM and 1050 nM, respectively.
Consider `CC(C)(C)NCCNc1cc(-c2cncc(F)c2)nc(C2CCN(c3ncnc4c3C(C)(C)C(=O)N4)CC2)c1` [Comparative Example B, 4-(4-(4-((2-(Tert-butylamino)ethyl)amino)-5′-fluoro-[2,3′-bipyridin]-6-yl)piperidin-1-yl)-5,5-dimethyl-5H-pyrrolo[2,3-d]pyrimidin-6(7H)-one, reference compound], for which the pIC50 in test [3] was 6.18. The GI50 in test [1] amounted to 2.92 µM; in test [2] it was 2640 nM.
For the molecule `CC(C)(C)NCCNc1ccc(-c2noc(C(F)F)n2)nc1C1CCN(c2ncnc3c2C(C)(C)C(=O)N3)CC1` [Compound 41, 4-(4-(3-((2-(Tert-butylamino)ethyl)amino)-6-(5-(difluoromethyl)-1,2,4-oxadiazol-3-yl)pyridin-2-yl)piperidin-1-yl)-5,5-dimethyl-5H-pyrrolo[2,3-d]pyrimidin-6(7H)-one], the pIC50 in test [4] is 8.80; in test [3], 8.14; in test [5], 9.52. In addition, it took 86 nM to inhibit growth in test [2] by half (GI50).
For `CC1(C)C(=O)Nc2ncnc(N3CCC(c4nc(-c5nc(C(F)(F)F)no5)ccc4NCCN4CCCC4)CC3)c21` [Compound 44, 5,5-Dimethyl-4-(4-(3-((2-(pyrrolidin-1-yl)ethyl)amino)-6-(3-(trifluoromethyl)-1,2,4-oxadiazol-5-yl)pyridin-2-yl)piperidin-1-yl)-5H-pyrrolo[2,3-d]pyrimidin-6(7H)-one], the values for the pIC50 in test [4], in test [3] and in test [5] were 9.30, 8.59 and 9.40, respectively. Also, in test [2], the GI50 is 102 nM.

As a reminder, the GI50 is the concentration that inhibits growth by half. A word on the pIC50: it is the negative decadic logarithm of the IC50, by convention in mol/L.

The values above are taken from US10538528B2, “5H-pyrrolo[2,3-D]pyrimidin-6(7H)-one derivative” (Taiho Pharmaceutical Co., Ltd., priority 2016, dated 2020).
